Here are results for two molecules from patent publication US20130071897A1, “METHOD FOR CONTROLLING UNDESIRABLE BYPRODUCTS FORMATION CAUSED BY CONTAMINATING ORGANISMS IN THE PRODUCTION OF ETHANOL FROM SYNGAS” (COSKATA, INC., priority 2011, published 2013).

The test system of the experiment is acyl-CoA dehydrogenases. As to the kind of experiment: In vitro acyl-CoA dehydrogenase ferrocenium assay with C. tyrobutyricum cell-free extract. Type of experiment: biochemical. Particulars: 0.5 to 10 mM compound, rate of ferrocenium reduction at 300 nm. A digest of the protocol:
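Lysozyme-lysed cell-free extract of early-log C. tyrobutyricum was assayed anaerobically at laboratory temperature in 50 mM Tris-HCl pH 7.6 with 0.05 mM butyryl-CoA, FAD and 0.4 mM ferrocenium. Ferrocenium reduction was followed at 300 nm over 10–20 min, and the rate slope was plotted against compound concentration to give a dose-response slope.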

Regarding `CCOC(=O)/C=C(\N)C(F)(F)F` [B, ethyl-3-amino-4,4,4-trifluorocrotonate], the “Dose-Response Slope” value was 25.
Consider `CCOC(=O)C=C(C(F)(F)F)C(F)(F)F` [Compound A, ethyl 4,4,4-trifluoro-3-(trifluoromethyl)crotonate], for which the “Dose-Response Slope” value is “about 8”. Where the note is “listed as Ethyl 4,4,4-trifluoro-3-(trifluoromethyl)crotonate”, the “Dose-Response Slope” value was 8.
